Target: T1, KRas-G12D (Homo sapiens, UniProt P01116, G12D)
T1 construct: insert the HiBiT tag onto the N-terminus of one or more of the endogenous KRas alleles; host or cells: AsPC-1 HiBiT-KRasG12D knock-in clone (one tagged allele, two untagged KRasG12D alleles)
Assay: HiBiT Degradation Assay (G12D), AsPC-1 HiBiT-KRasG12D cells, 24 hr
Assay type: cell-based
Conditions: for Dmax: ASPC1, AsPC-1 cells, maximum degradation observed; for DC50: AsPC-1 cells
Outline: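 AsPC-1 cells with CRISPR N-terminal HiBiT knock-in on one endogenous KRasG12D allele, treated 24 hr at 37° C with compound titrations in 0.5% DMSO. Lytic HiBiT luminescence normalized to DMSO, fitted to a 4-parameter model for DC50 and Dmax. Parallel alamar blue (4 hr) checked viability.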

T1 sequence (P01116 1-188 isoform P01116-2 G12D): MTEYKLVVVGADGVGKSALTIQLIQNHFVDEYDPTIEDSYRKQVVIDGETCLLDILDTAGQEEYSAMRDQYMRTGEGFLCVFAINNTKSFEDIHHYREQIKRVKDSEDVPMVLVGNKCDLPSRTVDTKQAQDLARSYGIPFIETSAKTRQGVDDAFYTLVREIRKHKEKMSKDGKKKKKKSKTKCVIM

SMILES	Dmax [%]	DC50 [µM]
C#Cc1c(F)ccc2cc(O)cc(-c3ncc4c(N5CC6CCC(C5)N6)nc(OCCN5CCC(CN6CCC(CC7CCN(c8ccc9c(c8F)CN(C8CCC(=O)NC8=O)C9=O)CC7)CC6)CC5)nc4c3F)c12 (centres unmarked) [Compound 88, 3-{5-[4-({1-[(1-{2-[(4-{3,8-diazabicyclo[3.2.1]octan-3-yl}-7-(8-ethynyl-7-fluoro-3-hydroxynaphthalen-1-yl)-8-fluoropyrido[4,3-d]pyrimidin-2-yl)oxy]ethyl}piperidin-4-yl)methyl]piperidin-4-yl}methyl)piperidin-1-yl]-4-fluoro-1-oxo-2,3-dihydro-1H-isoindol-2-yl}piperidine-2,6-dione]	> 70	< 5.1
C#Cc1c(F)ccc2cc(O)cc(-c3ncc4c(N5CC6CCC(C5)N6)nc(OCCN5CCC(CC6CCN(c7ccc8c(c7)n(C)c(=O)n8C7CCC(=O)NC7=O)CC6)CC5)nc4c3F)c12 (centres unmarked) [Compound 89, 3-(5-{4-[(1-{2-[(4-{3,8-diazabicyclo[3.2.1]octan-3-yl}-7-(8-ethynyl-7-fluoro-3-hydroxynaphthalen-1-yl)-8-fluoropyrido[4,3-d]pyrimidin-2-yl)oxy]ethyl}piperidin-4-yl)methyl]piperidin-1-yl}-3-methyl-2-oxo-2,3-dihydro-1H-1,3-benzodiazol-1-yl)piperidine-2,6-dione]	> 70	< 5.1
C#Cc1c(F)ccc2cc(O)cc(-c3ncc4c(N5CC6CCC(C5)N6)nc(OCCN5CCC(CC6(F)CCN(CC7CCN(c8ccc9c(c8)CN(C8CCC(=O)NC8=O)C9=O)CC7)CC6)CC5)nc4c3F)c12 (centres unmarked) [Compound 90, 3-{5-[4-({4-[(1-{2-[(4-{3,8-diazabicyclo[3.2.1]octan-3-yl}-7-(8-ethynyl-7-fluoro-3-hydroxynaphthalen-1-yl)-8-fluoropyrido[4,3-d]pyrimidin-2-yl)oxy]ethyl}piperidin-4-yl)methyl]-4-fluoropiperidin-1-yl}methyl)piperidin-1-yl]-1-oxo-2,3-dihydro-1H-isoindol-2-yl}piperidine-2,6-dione]		> 1
C#Cc1c(F)ccc2cc(O)cc(-c3ncc4c(N5CC6CCC(C5)N6)nc(OCCN5CCC(F)(CC6CCN(CC7CCN(c8ccc9c(c8)CN(C8CCC(=O)NC8=O)C9=O)CC7)CC6)CC5)nc4c3F)c12 (centres unmarked) [Compound 91, 3-[5-[4-[[4-[[1-[2-[4-(3,8-diazabicyclo [3.2.1]octan-3-yl)-7-(8-ethynyl-7-fluoro-3-hydroxy-1-naphthyl)-8-fluoro-pyrido[4,3-d]pyrimidin-2-yl]oxyethyl]-4-fluoro-4-piperidyl]methyl]-1-piperidyl]methyl]-1-piperidyl]-1-oxo-isoindolin-2-yl]piperidine-2,6-dione]	> 70	< 5.1
C#Cc1c(F)ccc2cc(O)cc(-c3ncc4c(N5CC6CCC(C5)N6)nc(OCCN5CCC(CN6CCC7(CC6)CCN(c6ccc8c(c6F)CN(C6CCC(=O)NC6=O)C8=O)CC7)CC5)nc4c3F)c12 (centres unmarked) [Compound 92, 3-(5-{9-[(1-{2-[(4-{3,8-diazabicyclo[3.2.1]octan-3-yl}-7-(8-ethynyl-7-fluoro-3-hydroxynaphthalen-1-yl)-8-fluoropyrido[4,3-d]pyrimidin-2-yl)oxy]ethyl}piperidin-4-yl)methyl]-3,9-diazaspiro[5.5]undecan-3-yl}-4-fluoro-1-oxo-2,3-dihydro-1H-isoindol-2-yl)piperidine-2,6-dione]	> 70	< 5.1
C#Cc1c(F)ccc2cc(O)cc(-c3ncc4c(N5CC6CCC(C5)N6)nc(OCCN5CCC(CN6CCC7(CC6)CCN(c6ccc8c(c6)CN(C6CCC(=O)NC6=O)C8=O)CC7)CC5)nc4c3F)c12 (centres unmarked) [Compound 93, 3-(5-{9-[(1-{2-[(4-{3,8-diazabicyclo[3.2.1]octan-3-yl}-7-(8-ethynyl-7-fluoro-3-hydroxynaphthalen-1-yl)-8-fluoropyrido[4,3-d]pyrimidin-2-yl)oxy]ethyl}piperidin-4-yl)methyl]-3,9-diazaspiro[5.5]undecan-3-yl}-1-oxo-2,3-dihydro-1H-isoindol-2-yl)piperidine-2,6-dione]	> 70	< 5.1
C#Cc1c(F)ccc2cc(O)cc(-c3ncc4c(N5CC6CCC(C5)N6)nc(OCCN5CCC(CC6CCN(CC7CCN(c8cccc9c8n(C(C)C)c(=O)n9C8CCC(=O)NC8=O)CC7)CC6)CC5)nc4c3F)c12 (centres unmarked) [Compound 94, 3-{4-[4-({4-[(1-{2-[(4-{3,8-diazabicyclo[3.2.1]octan-3-yl}-7-(8-ethynyl-7-fluoro-3-hydroxynaphthalen-1-yl)-8-fluoropyrido[4,3-d]pyrimidin-2-yl)oxy]ethyl}piperidin-4-yl)methyl]piperidin-1-yl}methyl)piperidin-1-yl]-2-oxo-3-(propan-2-yl)-2,3-dihydro-1H-1,3-benzodiazol-1-yl}piperidine-2,6-dione]	> 70	< 5.1
C#Cc1c(F)ccc2cc(O)cc(-c3ncc4c(N5CC6CCC(C5)N6)nc(OC[C@@H]5C[C@@H](OC6CCN(CC7CCN(c8ccc9c(c8)n(C(C)C)c(=O)n9C8CCC(=O)NC8=O)CC7)CC6)CN5C)nc4c3F)c12 (stereo partly drawn) [Compound 95, 3-(5-{4-[(4-{[(3R,5S)-5-{[(4-{3,8-diazabicyclo[3.2.1]octan-3-yl}-7-(8-ethynyl-7-fluoro-3-hydroxynaphthalen-1-yl)-8-fluoropyrido[4,3-d]pyrimidin-2-yl)oxy]methyl}-1-methylpyrrolidin-3-yl]oxy}piperidin-1-yl)methyl]piperidin-1-yl}-2-oxo-3-(propan-2-yl)-2,3-dihydro-1H-1,3-benzodiazol-1-yl)piperidine-2,6-dione]	> 70	< 5.1
C#Cc1c(F)ccc2cc(O)cc(-c3ncc4c(N5CC6CCC(C5)N6)nc(OC[C@@H]5C[C@@H](OC6CCN(CC7CCN(c8ccc9c(c8)n(C)c(=O)n9C8CCC(=O)NC8=O)CC7)CC6)CN5C)nc4c3F)c12 (stereo partly drawn) [Compound 96, 3-(5-{4-[(4-{[(3R,5S)-5-{[(4-{3,8-diazabicyclo[3.2.1]octan-3-yl}-7-(8-ethynyl-7-fluoro-3-hydroxynaphthalen-1-yl)-8-fluoropyrido[4,3-d]pyrimidin-2-yl)oxy]methyl}-1-methylpyrrolidin-3-yl]oxy}piperidin-1-yl)methyl]piperidin-1-yl}-3-methyl-2-oxo-2,3-dihydro-1H-1,3-benzodiazol-1-yl)piperidine-2,6-dione]	> 70	< 5.1
C#Cc1c(F)ccc2cc(O)cc(-c3ncc4c(N5CC6CCC(C5)N6)nc(OCCN5CCC(CC6CCN(CC7CCN(c8ccc9c(c8)CN(C8(C)CCC(=O)NC8=O)C9=O)CC7)CC6)CC5)nc4c3F)c12 (centres unmarked) [Compound 97]		> 1
C#Cc1c(F)ccc2cc(O)cc(-c3ncc4c(N5CC6CCC(C5)N6)nc(OCCN5CCC(CC6CCN(CC7CCN(c8ccc9c(c8)n(C(C)C)c(=O)n9C8CCC(=O)NC8=O)CC7)CC6)CC5)nc4c3F)c12 (centres unmarked) [Compound 98, 3-{5-[4-({4-[(1-{2-[(4-{3,8-diazabicyclo[3.2.1]octan-3-yl}-7-(8-ethynyl-7-fluoro-3-hydroxynaphthalen-1-yl)-8-fluoropyrido[4,3-d]pyrimidin-2-yl)oxy]ethyl}piperidin-4-yl)methyl]piperidin-1-yl}methyl)piperidin-1-yl]-2-oxo-3-(propan-2-yl)-2,3-dihydro-1H-1,3-benzodiazol-1-yl}piperidine-2,6-dione]	> 70	< 5.1
